We go through two compounds from patent US9227953B2, “Crystal form” (Glaxo Group Limited, priority 2011, dated 2016).

The structures appear in SMILES notation.

Common to all, as to type: physicochemical
A short description of data set [1]: Dynamic Vapor Sorption. Conditions: product of Example 1(d). As to the method: The product was characterized in several ways and determined to be the form termed Form 1 rilapladib. It provided an XRPD pattern as represented in FIG. 3, a Raman spectrum as represented in FIG. 4, and a capillary melting point of 116-118° C.
Data set [2] can be described thus: relative thermodynamic stability of rilapladib crystal forms. Conditions: compared with other crystalline forms of rilapladib.
A short description of data set [3]: chemical stability of the crystal form.

As for `COCCN1CCC(N(Cc2ccc(-c3ccc(C(F)(F)F)cc3)cc2)C(=O)Cn2c(SCc3cccc(F)c3F)cc(=O)c3ccccc32)CC1` [Form 1 rilapladib, N-[1-(2-methoxyethyl)-piperidin-4-yl]-2-[2-(2,3-difluorobenzylthio)-4-oxo-4H-quinolin-1-yl]-N-(4′-trifluoromethylbiphenyl-4-ylmethyl)acetamide], the “hygroscopicity by Dynamic Vapor Sorption” value in data set [1] is “non-hygroscopic”.

As for `COCCN1CCC(N(Cc2ccc(-c3ccc(C(F)(F)F)cc3)cc2)C(=O)Cn2c(SCc3cccc(F)c3F)cc(=O)c3ccccc32)CC1` [rilapladib Form 3, N-[1-(2-methoxyethyl)-piperidin-4-yl]-2-[2-(2,3-difluorobenzylthio)-4-oxo-4H-quinolin-1-yl]-N-(4′-trifluoromethylbiphenyl-4-ylmethyl)acetamide], the thermodynamic stability result in data set [2] is “more thermodynamically stable than Form 1 and Form 2”. Besides, the chemical stability result in data set [3] is given as “very good chemical stability”.
